Results published in patent publication US20240279174A1, “ANTIBIOTICS COMPRISING LPXH-TARGETING COMPOUNDS AND METHODS OF MAKING AND USING THE SAME” (Duke University, priority 2019, published 2024).
In brackets after ≈: the same amount, converted by molar mass. Like-named read-outs stand apart in the source and are kept apart here.

Columns and labels:
[1] = test system: WT K. pneumoniae; conditions: cited from earlier work
[2] = test system: K. pneumoniae (ATCC 10031); assay: MIC assay (broth microdilution), K. pneumoniae; assay type: cell-based; conditions: Klebsiella pneumoniae, ATCC10031
Description: (§1) The MIC assay protocol was adapted from the broth microdilution methods described by the National Committee for Clinical Laboratory Standards using 96-well plates as described previously. In brief, overnight bacterial cultures were diluted to an OD600 of 0.006 in cation-adjusted Mueller-Hinton medium containing 7% DMSO and incubated at 37° C. for 22 h in the presence of varying concentrations of inhibitors. Following overnight incubation, each well is treated with 10 μL of 3-(4,5-dimethylthiazol-2-yl)-2,5-diphenyltetrazolium bromide (MTT, 5 mg/mL) for 3 h. Finally, the culture is solubilized by addition of 2-propanol, and the results are read by taking the difference of the UV reading at both 570 and 690 nm. MIC values were reported as the lowest compound concentration that inhibited bacterial growth. The baseline for inhibited cell growth was determined to be <4× the average control reading due to the baseline optical density of the initial starting bacterial culture.

[3] = test system: E. coli strains with a compromised outer membrane (yhjD*ΔkdtA) or with an efflux pump deletion (ΔtolC); conditions: cited from earlier work
[4] = biological target: T1, K. pneumoniae LpxH (KpLpxH) (Klebsiella pneumoniae subsp. pneumoniae (strain ATCC 700721 / MGH 78578), UniProt A6T5R0); assay: LpxE-coupled malachite green LpxH activity assay (KpLpxH inhibition); assay type: biochemical; conditions: for remaining activity at 0.1 µM / inhibition at 0.1 µM: 0.1 μM inhibitor; for remaining activity at 0.1 µM: normalized against KpLpxH activity in 10% DMSO, read-out: Percentage Activity of KpLpxH (vi/v0); for inhibition at 0.1 µM: read-out: Percentage Inhibition of KpLpxH; for IC50: Table 5, read-out: IC50: Average
Description: Evaluation of LpxH inhibition by analogs: After completing the synthesis of sulfonyl piperazine compounds with various forms of linkers, the KpLpxH inhibition was biochemically characterized by these analogs at 0.1 μM using the nonradioactive, colorimetric malachite green assay that we had previously reported. […] Such an enhanced potency requires the presence of the hydroxamate group, as its substitution with a carboxylate group in compound 7 reduced the compound activity (vi/v0=30±6%).
The LpxE-coupled LpxH activity assay was conducted as described previously using the GB1-K. pneumoniae LpxH-His10 fusion protein. Briefly, two reaction mixtures were prepared. Mixture 1 contains 20 mM Tris-HCl (pH 8.0), 0.5 mg/mL BSA, 0.02% Triton X-100, 1 mM MnCl2, 1 mM DTT, 10% DMSO, and 200 µM substrate (UDP-DAGn), and mixture 2 is comprised of the same buffer, but instead of substrate, contains both LpxH (20 ng/ml) and 2× inhibitor. These mixtures were then pre-incubated at 37° C. for 10 min. To initiate the reaction, an equal volume of the LpxH mixture (mixture 2) was added to the substrate mixture (mixture 1) at 37° C. The final reaction solution contains 100 μM substrate, 10 ng/ml enzyme, and 1× inhibitor. At the desired reaction time points, an aliquot of 20 μL reaction mixture was removed and added to a well in 96-well half-area plate containing 5 mM EDTA (final concentration) to quench the LpxH reaction. Purified Aquifex aeolicus LpxE was then added to a final concentration of 5 μg/mL. The plate was incubated at 37° C. for 30 min followed by addition of formic acid to a final concentration of 3.75 M to quench the LpxE reaction. The malachite green reagent (Sigma Aldrich, catalog MAK307) was diluted 5-fold into the solutions, and the plate was incubated for 30 min at room temperature before the absorbance at 620 nm was measured. All measurements were done in triplicates, and standard error (S.E.) was calculated.

[5] = biological target: T1, K. pneumoniae LpxH (KpLpxH); conditions: previously reported value for 2; read-out: KI of KpLpxH inhibition (reported value); cited from earlier work
[6] = test system: E. coli W3110; assay: MIC assay (broth microdilution), E. coli; assay type: cell-based; conditions: Escherichia coli, Table 4
Description: as §1

[7] = K. pneumoniae (ATCC 10031), in vitro, read-out: MIC
[8] = Table 4, read-out: MIC - K. pneumoniae (ATCC 10031)

SMILES | MIC [2, 8] | IC50 [4] | MIC [6] | also measured
CC(=O)N1CCc2cc(S(=O)(=O)N3CCN(c4cccc(C(F)(F)F)c4)CC3)ccc21 [AZ1, reference compound] | > 64 µg/mL | – | – | antibiotic activity [1]: weak antibiotic activity; MIC [2, 7]: > 64 µg/mL; antibiotic activity [3]: weak antibiotic activity; remaining activity at 0.1 µM [4]: 78%; inhibition at 0.1 µM [4]: 22%
CC(=O)N1CCc2cc(S(=O)(=O)N3CCN(c4cc(Cl)cc(C(F)(F)F)c4)CC3)ccc21 [JH-LPH-33] | 0.83 µg/mL (≈ 1.7 µM) | 0.104 µM | – | Ki [5]: 0.01 µM; MIC [2, 7]: 0.83 µg/mL (≈ 1.7 µM); remaining activity at 0.1 µM [4]: 21%; inhibition at 0.1 µM [4]: 79%
CC(=O)N1CCc2cc(S(=O)(=O)N3CCN(c4nccc(C(F)(F)F)n4)CC3)ccc21 [JH-LPH-93] | 1.33 µg/mL (≈ 2.92 µM) | 0.032 µM | – | –
O=C(CCCCNC(=O)N1CCc2cc(S(=O)(=O)N3CCN(c4cc(C(F)(F)F)cc(Cl)n4)CC3)ccc21)NO [JH-LPH-96] | 0.83 µg/mL (≈ 1.37 µM) | 0.002 µM | – | –
O=C(CCCCCNC(=O)Nc1ccc(S(=O)(=O)N2CCN(c3cc(C(F)(F)F)cc(Cl)n3)CC2)cc1)NO [JH-LPH-104] | 1 µg/mL (≈ 1.69 µM) | 0.00023 µM | 16 µg/mL (≈ 27 µM) | –
CN(c1ccccc1C(=O)Nc1ccc(S(=O)(=O)N2CCN(c3cc(Cl)cc(Cl)c3)CC2)cc1)S(C)(=O)=O [JH-LPH-105] | 0.3 µg/mL (≈ 0.502 µM) | – | 2 µg/mL (≈ 3.35 µM) | –
CN(c1ccccc1C(=O)N1CCc2cc(S(=O)(=O)N3CCN(c4cc(C(F)(F)F)cc(Cl)n4)CC3)ccc21)S(C)(=O)=O [JH-LPH-106] | – | – | 1.7 µg/mL (≈ 2.58 µM) | –
CN(c1ccccc1C(=O)Nc1ccc(S(=O)(=O)N2CCN(c3cc(C(F)(F)F)cc(Cl)n3)CC2)cc1)S(C)(=O)=O [JH-LPH-107] | 0.04 µg/mL (≈ 0.0633 µM) | – | 1 µg/mL (≈ 1.58 µM) | –
